Experiment [1] has as its system human small cell lung cancer SW-2 cells. As to the kind of experiment: Subcutaneous xenograft model of SCLC, BA plus topotecan. Type of experiment: in vivo, SCID mice. The settings on record: SW-2 xenograft; for tumor growth delay: topotecan i.p. 0.5, 1 or 2 mg/kg, BA 25 mg/kg/week continuous infusion, BA value in 3 out of 6 animals. The protocol: The anti-tumor effect of a combination of BA and topotecan, one of the approved drugs for the treatment of small cell lung cancer (SCLC) in humans, is evaluated in an established subcutaneous xenograft model of SCLC. SCID mice (24 animals) are inoculated with human small cell lung cancer SW-2 cells (8×10^6 cells/animal) injected subcutaneously into the right flank of the mice. When the tumors reach about 80 mm^3 in size, the mice are randomly divided into four groups (6 animals per group). The first group of mice is treated with topotecan administered i.p. […] Alzet model osmotic pumps are implanted on days 1, 15, and 29. The pumps are pre-warmed for ˜1 hour at 37° C., and then implanted subcutaneously (s.c.) in the left flanks of isofluoraneanesthetized mice. The third group of mice receives a combination of topotecan and BA, using the same doses and schedules as in groups 1 and 2. A control group of animals receives phosphate-buffered saline (PBS) using the same schedule as the animals in group 2. Tumor growth is monitored by measuring tumor size twice per week. Tumor size is calculated using the formula: length×width×height×(½).

Experiment [2] relates to human colon, lung, and cervical carcinoma xenograft. The experiment in a line: Human colon, lung and cervical carcinoma xenograft models, BA administration. In kind it is in vivo, nude and SCID mice. A general note: A xenograft is tissue or cells of one species grown in another, often human tumour cells in immunodeficient mice.
Experiment [3] deals with human tumor cells including colon, prostate, cervix, lung, melanoma, lymphoma, and leukemia. The experiment in a line: In vitro proliferation of human tumor cells. In kind it is cell-based.

From patent US20090149397A1, “TREATMENT OF CANCER WITH COMBINATIONS OF TOPOISOMERASE INHIBITORS AND PARP INHIBITORS” (priority 2007, published 2009) come the findings set out here.

With `NC(=O)c1ccc(I)c([N+](=O)[O-])c1` [BA, 4-iodo-3-nitrobenzamide], in experiment [1] (out of 6 treated animals per group), the “complete tumor regression, number of animals” value is on record as 3 animals. Moreover, the tumor growth delay in experiment [1] amounted to 34 days. Moreover, the “survival rate of animals” value in experiment [2] (drug given daily or twice weekly) is “positively affects the survival rate”. Besides, the tumor growth entry in experiment [2] (once-daily or twice-weekly administration of BA) is reported as “inhibits tumor growth”. The “inhibition of proliferation of human tumor cells” value in experiment [3] was “inhibits the proliferation”.
`CC[C@@]1(O)C(=O)OCc2c1cc1n(c2=O)Cc2cc3c(CN(C)C)c(O)ccc3nc2-1` [topotecan, reference compound]: in experiment [1], the tumor growth delay was determined as 12 days.
